Experimental data published in paper PMC2114115 (The Journal of Cell Biology, 1986).
One block for each compound: values may come before it.

How the values were obtained:
GH4C1 cells [1] = test: Release and degradation of cell-bound 125I-EGF; format: cell-based, rat; conditions: 37C; for half-time for the release of 125I-tyrosine derived from receptor-bound 125I-EGF: Fig. 6, control cells or 0.1 mM chloroquine, 59 pM, 90 min binding; for subsequent rate of release of 125I-tyrosine from 125I-EGF: chloroquine 0.1 mM, leupeptin 0.1 mg/ml
GH4C1 cells [2] = test: Acid/salt extraction: cellular distribution of receptor-bound 125I-EGF; format: cell-based, rat; conditions: pulse-chase at 37 degrees C after binding 5 h at 4C, 80 pM (Fig. 2)
GH4C1 cells [3] = test: Release and degradation of cell-bound [125I-Tyr1]SRIF; format: cell-based, rat; conditions: for effect on receptor-mediated degradation of [125I-Tyr1]SRIF: Table V conditions, compound in dissociation medium, 60 min at 37C; for rate of dissociation or degradation of prebound [125I-Tyr1]SRIF / half-time of release of radioactivity after [125I-Tyr1]SRIF binding: 37C; for rate of dissociation or degradation of prebound [125I-Tyr1]SRIF: chloroquine 0.1 mM, leupeptin 0.1 mg/ml; for half-time of release of radioactivity after [125I-Tyr1]SRIF binding: Fig. 6, absence or presence of 0.1 mM chloroquine, or 0.1 mg/ml leupeptin, 35 pM, 60 min binding
[4] = target: EGF receptors of GH4C1 cells (Rattus norvegicus, UniProt G3V6K6); test: Specific binding of 125I-EGF to GH4C1 cells; conditions: for amount of cell-associated 125I-EGF: Fig. 5, prolonged 37C binding incubations, chloroquine 0.1 mM, leupeptin 0.1 mg/ml
[5] = system: SRIF receptors of GH4C1 cells; test: Specific binding of [125I-Tyr1]SRIF to GH4C1 cells; parameters: species or system rat; conditions: for cellular accumulation of total or acid-resistant [125I-Tyr1]SRIF: ammonium chloride 20 mM, leupeptin 0.1 mg/ml; for [125I-Tyr1]SRIF bound, Total: Table III, control, leupeptin 0.1 mg/ml or chloroquine 0.1 mM
GH4C1 cells [6] = conditions: 37C; cited from earlier work
GH4C1 cells [7] = conditions: Koch and Schonbrunn, unpublished observations; cited from earlier work
GH4C1 cell membranes = test: Binding, dissociation and degradation of [125I-Tyr1]SRIF with cell membranes; parameters: species or system rat; conditions: Table IV; dissociation incubation 4 h at 37C; without or with 100 nM SRIF
[8] = Table V Exp. 2, control or a2-macroglobulin 50 ug/ml

Compound: 125I-EGF: radioiodinated epidermal growth factor, chloramine T iodination
half-time for the release of 125I-tyrosine derived from receptor-bound 125I-EGF (GH4C1 cells [1]): 45 min
half-time of transfer from acid-sensitive to acid-resistant compartment (GH4C1 cells [2]): 2 min

Compound: O=S(=O)(F)Cc1ccccc1 [PMSF, phenylmethylsulfonyl fluoride]
effect on receptor-mediated degradation of [125I-Tyr1]SRIF (GH4C1 cells [3]): same small effect

Compound: CC(C)C[C@H](NP(=O)(O)O[C@@H]1O[C@@H](C)[C@H](O)[C@@H](O)[C@H]1O)C(=O)N[C@@H](Cc1c[nH]c2ccccc12)C(=O)O [Phosphoramidon, phosphoramidon]
effect on receptor-mediated degradation of [125I-Tyr1]SRIF (GH4C1 cells [3]): substantially inhibited

Compound: Cc1ccc(S(=O)(=O)NC(CCCCN)C(=O)CCl)cc1 [TLCK, Na-p-tosyl-L-lysine chloromethyl ketone]
effect on receptor-mediated degradation of [125I-Tyr1]SRIF (GH4C1 cells [3]): same small effect

Compound: Cc1ccc(S(=O)(=O)N[C@@H](Cc2ccccc2)C(=O)CCl)cc1 [TPCK, L-l-tosylamide 2-phenylethyl chloromethyl ketone]
effect on receptor-mediated degradation of [125I-Tyr1]SRIF (GH4C1 cells [3]): substantially inhibited

amount of 125I-EGF bound to cells ([4]; 20 mM ammonium chloride, 4 h at 37C): 210 % of untreated controls
Compound: Cl.N [ammonium chloride]
[125I-Tyr1]SRIF binding ([5]; 20 mM ammonium chloride, 4 h at 37C, same experiment): unaffected
cellular accumulation of total or acid-resistant [125I-Tyr1]SRIF ([5]; 37C, chloroquine 0.1 mM): none of these inhibitors increased

Compound: O=C(O)c1cc[c]([Hg][Cl])cc1 [chloromercuribenzoate]
effect on receptor-mediated degradation of [125I-Tyr1]SRIF (GH4C1 cells [3]): substantially inhibited

Compound: CCN(CC)CCCC(C)Nc1ccnc2cc(Cl)ccc12 (centres unmarked) [chloroquine]
subsequent rate of release of 125I-tyrosine from 125I-EGF (GH4C1 cells [1]): decreased
half-time for the release of 125I-tyrosine derived from receptor-bound 125I-EGF (GH4C1 cells [1]): 150 min
amount of cell-associated 125I-EGF [4]: increased
cellular accumulation of total or acid-resistant [125I-Tyr1]SRIF ([5]; 37C, chloroquine 0.1 mM): none of these inhibitors increased
[125I-Tyr1]SRIF bound, Total ([5]; chase 30 min at 37C): 3,491 cpm
[125I-Tyr1]SRIF bound, Total ([5]; chase 60 min at 37C): 1,725 cpm
decrease in [125I-Tyr1]SRIF binding ([5]; chloroquine 0.1 mM, 37C, all times): 50%
rate of dissociation or degradation of prebound [125I-Tyr1]SRIF (GH4C1 cells [3]): did not alter
half-time of release of radioactivity after [125I-Tyr1]SRIF binding (GH4C1 cells [3]): 41 min

Compound: NC(=O)CI [iodoacetamide]
effect on receptor-mediated degradation of [125I-Tyr1]SRIF (GH4C1 cells [3]): substantially inhibited

Compound: CC(=O)N[C@@H](CC(C)C)C(=O)N[C@@H](CC(C)C)C(=O)N[C@H](C=O)CCCNC(=N)N [leupeptin]
subsequent rate of release of 125I-tyrosine from 125I-EGF (GH4C1 cells [1]): decreased
amount of cell-associated 125I-EGF [4]: increased
cellular accumulation of total or acid-resistant [125I-Tyr1]SRIF ([5]; 37C, chloroquine 0.1 mM): none of these inhibitors increased
[125I-Tyr1]SRIF bound, Total ([5]; chase 30 min at 37C): 5,537 cpm
[125I-Tyr1]SRIF bound, Total ([5]; chase 60 min at 37C): 3,385 cpm
rate of dissociation or degradation of prebound [125I-Tyr1]SRIF (GH4C1 cells [3]): did not alter
half-time of release of radioactivity after [125I-Tyr1]SRIF binding (GH4C1 cells [3]): 48 min

Compound: COc1ccc(C[C@H](N)C(=O)N[C@H]2[C@@H](O)[C@H](n3cnc4c(N(C)C)ncnc43)O[C@@H]2CO)cc1 [puromycin]
effect on receptor-mediated degradation of [125I-Tyr1]SRIF (GH4C1 cells [3]): same small effect

Compound: a2-macroglobulin
125I released (GH4C1 cells [3]; [8]): 2,217 cpm
% Intact [125I-Tyr1]SRIF (GH4C1 cells [3]; [8]): 64%
effect on receptor-mediated degradation of [125I-Tyr1]SRIF (GH4C1 cells [3]): same small effect

Compound: bacitracin
effect on receptor-mediated degradation of [125I-Tyr1]SRIF (GH4C1 cells [3]): same small effect

Compound: epidermal growth factor (NSYPGCPSSYDGYCLNGGVCMHIESLDSYTCNCVIGYSGDRCQTRDLRWWELR; not fully specified; Epidermal growth factor; UniProt P01132 977-1029, looked up) [EGF]
time for transformation from acid-extractable to acid-resistant state (GH4C1 cells [6]): ≤ 10 min

Compound: somatostatin [SRIF]
time to maximal inhibitory effect on hormone secretion (GH4C1 cells [7]): ≤ 5 min
125I bound (GH4C1 cell membranes): 9,695 cpm
125I dissociated (GH4C1 cell membranes): 10,791 cpm
% Intact [125I-Tyr1]SRIF (GH4C1 cells [3]; Table V Exp. 1, SRIF 0.1 mM in dissociation medium): 65%
effect on receptor-mediated degradation of [125I-Tyr1]SRIF (GH4C1 cells [3]): only a slight effect
